According to patent publication US20210317145A1, “Boronic Acid Derivatives” (Merck Patent GmbH, priority 2018, published 2021):
pIC50: −log10 of the molar value.

Tests used:
[1] = biological target: LMP7 (purified human immuno proteasome) (Homo sapiens, UniProt P20618+P28062); experiment: Determination of LMP7 activity (fluorescence intensity assay, Suc-LLVY-AMC); format: biochemical; conditions: for Selectivity LMP7 vs Beta5: LMP7 versus Beta5, incubation for 20 minutes; for pIC50: purified human immuno proteasome 0.25 nM, incubation for 20 minutes at 25° C., Suc-LLVY-AMC 40 μM
Procedure: Determination of LMP7 Activity:
Measurement of LMP7 inhibition is performed in 384 well format based on fluorescence intensity assay.
(§1) Purified human immuno proteasome (0.25 nM) and serial diluted compounds in DMSO (range of concentrations from 30 μM to […]) or controls are incubated for 20 minutes or 120 minutes (long incubation) at 25° C. in assay buffer containing 50 mM Tris pH 7.4, 0.03% SDS, 1 mM EDTA and 1% DMSO. The reaction is initiated by the addition of the fluorogenic peptide substrate, Suc-LLVY-AMC (Bachem 1-1395), at a concentration of 40 μM. After 60 minutes of incubation at 37° C., fluorescence intensity is measured at λex=350 nm and λem=450 nm with a fluorescence reader (Perkin Elmer Envision reader or equivalent).
(§2) Unless indicated otherwise the results are obtained after incubation for 20 minutes.

[2] = biological target: Beta5 (purified human constitutive proteasome) (Homo sapiens, UniProt P20618+P28074); experiment: Determination of Beta5 activity (fluorescence intensity assay, Suc-LLVY-AMC); format: biochemical; conditions: purified human constitutive proteasome 1.25 nM, incubation for 20 minutes at 25° C., Suc-LLVY-AMC 40 μM
Procedure: Determination of Beta5 Activity:
Measurement of Beta5 inhibition is performed in 384 well format based on fluorescence intensity assay.
as §1, with “constitutive” for “immuno”, “(1.25” for “(0.25”
as §2

SMILES	Selectivity LMP7 vs Beta5 [1]	pIC50 [1]	pIC50 [2]	Selectivity LMP7 vs Beta5 ([1]; listed as drawing 86)	Selectivity LMP7 vs Beta5 ([1]; listed as drawing 87)
O=C(N[C@@H](Cc1coc2ccccc12)B(O)O)[C@H]1COCCO1 [Compound 40, [(1R)-2-(benzofuran-3-yl)-1-[[(2R)-1,4-dioxane-2-carbonyl]-amino]ethyl]boronic acid]	+ (Selectivity <100)	≥ 7.30	5.30 to 6.30		
CSCC(=O)N[C@H](Cc1coc2c(F)cccc12)B(O)O [Compound 23]	++ (100 ≤ Selectivity < 300)	6.30 to 7.30	4.52 to 5.30		
O=C(N[C@@H](Cc1coc2ccccc12)B(O)O)[C@H]1CCOC1 [Compound 32, [(1R)-2-(benzofuran-3-yl)-1-[[(3S)-tetrahydro-furan-3-carbonyl]-amino]ethyl]boronic acid]	++ (100 ≤ Selectivity < 300)	≥ 7.30	4.52 to 5.30		
CC(C)(O)CC(=O)N[C@@H](Cc1coc2ccccc12)B(O)O [Compound 25, [(1R)-2-(benzofuran-3-yl)-1-[(3-hydroxy-3-methylbutanoyl)amino]-ethyl]boronic acid]	++ (100 ≤ Selectivity < 300)	≥ 7.30	4.52 to 5.30		
CSCC(=O)N[C@H](Cc1coc2c(C)cccc12)B(O)O [Compound 1, [(1S)-2-(7-methylbenzo-furan-3-yl)-1-[(2-methyl-sulfanylacetyl)amino]-ethyl]boronic acid]	++ (100 ≤ Selectivity < 300)	5.30 to 6.30	4.52 to 5.30		
CSCC(=O)N[C@@H](Cc1coc2ccccc12)B(O)O [Compound 22, [(1R)-2-(benzofuran-3-yl)-1-[(2-methyl-sulfanylacetyl)-amino]ethyl]boronic acid]	++ (100 ≤ Selectivity < 300)	≥ 7.30	5.30 to 6.30		
O=C(CSCCCO)N[C@@H](Cc1coc2ccccc12)B(O)O [Compound 15, [(1R)-2-(benzofuran-3-yl)-1-[[2(3-hydroxy-propylsulfanyl)acetyl]-amino]ethyl]boronic acid]	+ (Selectivity <100)	≥ 7.30	6.30 to 7.30		
CSCC(=O)N[C@@H](Cc1coc2c(C)cccc12)B(O)O [Compound 6, [(1R)-2-(7-methylbenzo-furan-3-yl)-1-[(2-methyl-sulfanylacetyl)amino]-ethyl]boronic acid]	++ (100 ≤ Selectivity < 300)	≥ 7.30	6.30 to 7.30		
CSCC(=O)N[C@@H](Cc1coc2c(C)c(Cl)ccc12)B(O)O [Compound 14, [(1R)-2-(6-chloro-7-methylbenzofuran-3-yl)-1-[(2-methyl-sulfanylacetyl)amino]-ethyl]boronic acid]	+++ (300 ≤ Selectivity < 500)	≥ 7.30	5.30 to 6.30		
O=C(N[C@@H](Cc1coc2ccccc12)B(O)O)C1Cc2ccccc2O1 (single isomer, unassigned) [Compound 36]		≥ 7.30	6.30 to 7.30	+ (Selectivity <100)	
CSCC(=O)N[C@@H](Cc1coc2c(F)cccc12)B(O)O [Compound 12, [(1R)-2-(7-fluorobenzo-furan-3-yl)-1-[(2-methyl-sulfanylacetyl)amino]-ethyl]boronic acid]	++ (100 ≤ Selectivity < 300)	≥ 7.30	6.30 to 7.30		
CSCC(=O)N[C@@H](C[C@@H]1COc2ccccc21)B(O)O [Compound 5, [(1R)-2-[(3S)-2,3-dihydrobenzofuran-3-yl]-1-[(2-methylsulfan-ylacetyl)amino]ethyl]-boronic acid]	+++ (300 ≤ Selectivity < 500)	≥ 7.30	5.30 to 6.30		
O=C(N[C@@H](Cc1coc2ccccc12)B(O)O)C1SCCS1 [Compound 8, [(1R)-2-(benzofuran-3-yl)-1-(1,3-dithiolane-2-carbonylamino)ethyl]-boronic acid]	++ (100 ≤ Selectivity < 300)	≥ 7.30	5.30 to 6.30		
O=C(N[C@@H](Cc1coc2ccccc12)B(O)O)[C@H]1CCCO1 [Compound 27, [(1R)-2-(benzofuran-3-yl)-1-[[(2R)-tetrahydro-furan-2-carbonyl]amino]-ethyl]boronic acid]	++ (100 ≤ Selectivity < 300)	≥ 7.30	5.30 to 6.30		
O=C(N[C@@H](Cc1coc2ccccc12)B(O)O)C1CCCS1 (stereo partly drawn) [Compound 17, [(1R)-2-(benzofuran-3-yl)-1-(tetrahydrothio-phene-2-carbonyl-amino)ethyl]boronic acid]	++ (100 ≤ Selectivity < 300)	≥ 7.30	4.52 to 5.30		
O=C(N[C@@H](Cc1coc2ccccc12)B(O)O)C1COc2ccccc21 (stereo partly drawn) [Compound 35, [(1R)-2-(benzofuran-3-yl)-1-(2,3-dihydrobenzo-furan-3-carbonylamino)-ethyl]boronic acid]	++++ (Selectivity ≥ 500)	≥ 7.30	5.30 to 6.30		
CSCC(=O)N[C@@H](Cc1coc2c(Cl)cccc12)B(O)O [Compound 16, [(1R)-2-(7-chlorobenzo-furan-3-yl)-1-[(2-methylsulfanylacetyl)-amino]ethyl]boronic acid]	++ (100 ≤ Selectivity < 300)	≥ 7.30	6.30 to 7.30		
CSCC(=O)NC(Cc1coc2c(C)c(Cl)ccc12)B(O)O (stereo not drawn) [Compound 20, [2-(6-chloro-7-methyl-benzofuran-3-yl)-1-[(2-methylsulfanylacetyl)-amino]ethyl]boronic acid]	+++ (300 ≤ Selectivity < 500)	≥ 7.30	5.30 to 6.30		
COCCC(=O)N[C@@H](Cc1coc2ccccc12)B(O)O [Compound 31, [(1R)-2-(benzofuran-3-yl)-1-(3-methoxy-propanoylamino)ethyl]-boronic acid]	++ (100 ≤ Selectivity < 300)	≥ 7.30	6.30 to 7.30		
O=C(CCO)N[C@@H](Cc1coc2ccccc12)B(O)O [Compound 24, [(1R)-2-(benzofuran-3-yl)-1-(3-hydroxypro-panoylamino)ethyl]-boronic acid]	++ (100 ≤ Selectivity < 300)	≥ 7.30	5.30 to 6.30		
Cc1cccc2c(C[C@@H](NC(=O)[C@H]3CCCO3)B(O)O)coc12 [Compound 30]	++ (100 ≤ Selectivity < 300)	6.30 to 7.30	4.52 to 5.30		
O=C(N[C@@H](Cc1coc2ccccc12)B(O)O)C1Cc2ccccc2O1 (single isomer, unassigned) [Compound 37]		≥ 7.30	5.30 to 6.30		+++ (300 ≤ Selectivity < 500)
CSCC(=O)NC(Cc1coc2c(F)cccc12)B(O)O (stereo not drawn) [Compound 9, [2-(7-fluorobenzofuran-3-yl)-1-[(2-methyl-sulfanylacetyl)amino]-ethyl]boronic acid]	++ (100 ≤ Selectivity < 300)	≥ 7.30	5.30 to 6.30		
CSCC(=O)N[C@@H](CC1COc2c(C)cccc21)B(O)O (stereo partly drawn) [Compound 10, [(1R)-2-(7-methyl-2,3-dihydrobenzofuran-3-yl)-1-[(2-methyl-sulfanylacetyl)amino]-ethyl]boronic acid]	++++ (Selectivity ≥ 500)	≥ 7.30	4.52 to 5.30		
CSC(C(=O)N[C@@H](Cc1coc2ccccc12)B(O)O)c1ccccc1 (single isomer, unassigned) [Compound 7]	++ (100 ≤ Selectivity < 300)	≥ 7.30	4.52 to 5.30		
CSCC(=O)N[C@@H](Cc1ccc(C)cc1C)B(O)O [Compound 21, [(1R)-2-(2,4-dimethyl-phenyl)-1-[(2-methyl-sulfanylacetyl)amino]-ethyl]boronic acid]	++ (100 ≤ Selectivity < 300)	≥ 7.30	5.30 to 6.30		
COCC(=O)N[C@@H](Cc1coc2ccccc12)B(O)O [Compound 28, [(1R)-2-(benzofuran-3-yl)-1-[(2-methoxy-acetyl)amino]ethyl]-boronic acid]	+ (Selectivity <100)	≥ 7.30	5.30 to 6.30		
CSCC(=O)NC(CC1COc2ccccc21)B(O)O (stereo not drawn) [Compound 19, [2-(2,3-dihydrobenzo-furan-3-yl)-1-[(2-methylsulfanylacetyl)-amino]ethyl]boronic acid]	++++ (Selectivity ≥ 500)	≥ 7.30	4.52 to 5.30		
O=C(N[C@@H](Cc1coc2ccccc12)B(O)O)C1OCCc2ccccc21 (stereo partly drawn) [Compound 38, [(1R)-2-(benzofuran-3-yl)-1-(isochromane-1-carbonylamino)ethyl]-boronic acid]	+++ (300 ≤ Selectivity < 500)	≥ 7.30	5.30 to 6.30		
